Experimental data as given in article PMC12380353, “MK-8527 is a novel inhibitor of HIV-1 reverse transcriptase translocation with potential for extended-duration dosing” (PLOS Biology, 2025).
“And” between values parts separate entries of the source, which are not always exact repeats. Equal values may be shown once. Read-outs that look alike come from different tables or passages of the source.

Legend:
[1] = biological target: T1, HIV RT (Human immunodeficiency virus type 1 group M subtype B, UniProt P04585); assay: Iron footprinting assay of RT translocation state; assay type: biochemical; conditions: 1 µM MK-8527-TP or ISL-TP, 5 µM ddATP; absence or presence of dTTP
T1 construct: HIV RT (final concentration, 1,200 nM)
Experimental: The translocation state of RT was assessed with a site-specific iron footprinting assay adapted from previous work. Primer and template used for this assay are described in Fig 7A. The presence of Fe^2+ ions in the reaction generated hydroxyl radicals that cleaved the DNA template in a site-specific manner at the nucleotide closest to the RNase H active site. In addition to an RT inhibitor in the reaction, dTTP, the subsequent dNTP, was provided in dose titration to force the translocation of the 3′-primer terminus from the pre-translocation N-site to the post-translocation P-site.
(final concentration, 1 µM), or ddATP (final concentration, 5 µM), Td43/Pd30 pre-annealed primer and template (final concentration, 200 nM based on Cy3-labeled Td43 concentration), and dTTP titrated at various concentrations. All reagent stocks were in a base assay buffer consisting of 120 mM Tris pH 7.5, 20 mM NaCl, and 6 mM MgCl2 in nuclease-free water. […] The reaction was then heated to 37 °C for 5 min before quenching 1:1 with gel-loading dye followed by heating at 95 °C for 10 min. Samples were stored at −20 °C until being resolved by polyacrylamide gel electrophoresis with 7 M urea.

[2] = biological target: T1, HIV RT; assay: HIV-RT primer extension assay (chain termination); assay type: biochemical; conditions: 1 µM each dNTP
Experimental: The reaction protocol was adapted from previous work. Primers and template used for this assay are described in Fig 8A.
All reagent stocks were in a base assay buffer consisting of 50 mM Tris pH 7.5 and 50 mM NaCl in nuclease-free water. […] Samples were then heated to 95 °C for 10 min prior to storage at −20 °C until being resolved by polyacrylamide gel electrophoresis with 7 M urea.

[3] = tested on: HIV-1; assay: Multicycle antiviral assay in MT4-GFP cells; assay type: cell-based; conditions: WT HIV-1, multicycle assay, 10% NHS
Experimental: Compounds were evaluated for their ability to prevent HIV-1 infection in MT4-GFP cells as described in Diamond, and colleagues. HIV-1 replication was monitored using the MT4-gag-GFP clone D3, and MT4 cells with a GFP reporter gene, the expression of which is dependent on the HIV-1 expressed proteins tat and rev. […] Proviral variants used for these studies were generated by site-directed mutagenesis in the WT R8 proviral plasmid. Virus was produced by transfection in 293T cells.
Briefly, MT4-GFP cells were cultured overnight with the appropriate HIV-1 variant at an approximate multiplicity of infection of 0.01. After approximately 19 h of infection, the cells were washed and resuspended in assay media containing 10% normal human serum (NHS) before being added to 384-well compound plates containing 10-point serial 3-fold dilutions of compound. Controls included no inhibitor (dimethyl sulfoxide [DMSO] only) and a combination of 3 antiviral agents, efavirenz, indinavir, and an integrase strand transfer inhibitor, L-002254051, at final concentrations of 4 µM each. The infected or treated cells were cultured at 37 °C, 5% CO2, and 90% humidity until evaluation of infection was conducted at approximately 48 and 72 h post-infection by counting the number of GFP cells in each well using an Acumen eX3 scanner (SPT Labtech; Melbourn, UK). The reproductive ratio, R, was calculated by dividing the number of infected cells at 72 h by the number at 48 h post-infection. The percentage inhibition caused by a test compound was calculated by the following formula:
inhibition = [1−(Rtest compound − Rpositive control)]/(RDMSO only − Rpositive control) × 100%\]
The dose–response curves of each test compound were plotted as percentage inhibition versus the test concentration.

[4] = tested on: HIV-1; assay: Single-cycle antiviral assay in PBMCs; assay type: cell-based; conditions: HIV-1, single-cycle assay, human PBMCs, 10% NHS; read-out: PBMC IC50
Experimental: To evaluate the ability of inhibitors to prevent HIV-1 infection in primary cells, human PBMCs obtained from Biological Specialty Corporation (Colmar, PA, USA) were used to assess antiviral activity. The proviral variants used for these studies were generated by site-directed mutagenesis in a proviral vector derived from NL43 [52] that encodes GFP (pNLG1-P2A-GFP). Virus was produced by transfection in 293T cells.
PBMCs were activated with phytohemagglutinin (PHA) at 5 μg/mL in Roswell Park Memorial Institute (RPMI) 1640 medium containing 10% heat-inactivated fetal bovine serum (FBS) for 2–3 days. Compound plates were prepared by dispensing compounds dissolved in DMSO into 384-well poly-d-lysine-coated plates (0.2 μL per well) using an Echo acoustic dispenser (Labcyte; San Jose, CA, USA). Each compound was tested in a 10-point serial 3-fold dilution (typical final concentrations: 5,000 to 0.1 nM). Controls included no inhibitor (DMSO only) and a combination of 3 antiviral agents, efavirenz, indinavir, and the integrase strand transfer inhibitor, L-002254051, at final concentrations of 4 μM each. PHA-activated human PBMCs were washed and resuspended in RPMI 1640 containing 10% NHS and 30 units per mL of interleukin-2 (IL-2) at 6 × 10^5 cells per mL. PBMCs were added to the compound plates and cultured for 24 h at 37 °C, 5% CO2, and 90% humidity. The appropriate HIV-1 variant was added to the PBMCs and cultured at 37 °C, 5% CO2, and 90% humidity for an additional 24 h.
HIV-1–infected cells were quantified by counting the number of GFP cells in each well using an Acumen eX3 scanner (SPT Labtech; Melbourn, UK).

[5] = tested on: HIV-1; assay: microbe, parasite or virus in culture; conditions: for IC50: Human immunodeficiency virus 1, PBMC
Experimental: IC50 values were determined, and a persistence ratio was calculated for each compound. GFP, green fluorescent protein; hpi, hours post-infection; IC50, half maximal inhibitory concentration.
Assay media in each well were then evacuated and the cells resuspended using the gentle setting on the BlueWasher (BlueCatBio; Lebanon, NH, USA). Centrifugation and wash steps were repeated to ensure removal of extracellular compound.
MT4-GFP cells were infected with WT R8 virus, and PBMCs were infected with pNLG1-P2A-GFP. […] IC50 values were determined by nonlinear 4-parameter curve fitting of the data. A persistence ratio was calculated for each compound by dividing the IC50 from variable B (IC50B) by the IC50 from variable A (IC50A).

[6] = tested on: HIV-1
[7] = tested on: MT4-GFP cells; assay: CellTiter-Glo (CTG) cytotoxicity in MT4-GFP cells; conditions: read-out: MT4-GFP CTG CC50, CellTiter-Glo
[8] = tested on: HIV-1; conditions: HIV-1, PBMCs; read-out: PBMC IC50; cited from earlier work
[9] = tested on: HIV-1; assay: microbe, parasite or virus in culture
[10] = CellTiter-Glo (CTG) cytotoxicity in MT4-GFP cells; conditions: human

In the case of `Nc1ncnc2c1ncn2[C@H]1CC[C@@H](CO[P@@](=O)(O)O[P@](=O)(O)OP(=O)(O)O)O1` [ddATP, dideoxyadenosine triphosphate, reference compound], the “Translocation state of RT” value [1] is reported as “mostly in the post-translocation state” and the “Chain termination mechanism (ICT/DCT)” value [2] is reported as “only inhibits via ICT”.
In the case of “(2R,3S,5R)-5-(4-amino-5-methyl-7H-pyrrolo[2,3-d]pyrimidin-7-yl)-2-ethynyl-2-(hydroxymethyl)tetrahydrofuran-3-ol [Compound 8]”, the IC50 [3] is reported as 0.0854 µM, the IC50 [4] is reported as 0.0588 µM and the “Persistence ratio (PBMC)” value ([5]; IC50B/IC50A, PBMCs) is reported as 18. The “Persistence ratio (MT4-GFP)” value [6] was 6 and the CC50 [7] was 38.8 µM.
For `C#C[C@]1(CO)O[C@@H](n2cnc3c(N)nc(F)nc32)C[C@@H]1O` [ISL, 4′-ethynyl-2-fluoro-2′-deoxyadenosine, reference compound], the IC50 ([5]; 48 h, read-out: Persistence assay IC50B, PBMCs) is given as 0.0397 ± 0.0239 µM, the IC50 ([5]; read-out: Persistence assay IC50A, PBMCs) is given as 0.0008 ± 0.00048 µM and the IC50 [8] is given as 0.0002 µM and 0.00023 µM. For the same compound, the IC50 ([9]; Human immunodeficiency virus 1, 48 h, read-out: Persistence assay IC50B, MT4-GFP cells) was 0.0255 ± 0.00996 µM, the IC50 ([9]; Human immunodeficiency virus 1, read-out: Persistence assay IC50A, MT4-GFP cells) was 0.00089 ± 0.00063 µM and the CC50 [10] was > 42 µM.
